{"source": "paper PMC5590075", "about": "“Synthesis, Antimicrobial, and Antioxidant Activities of Chalcogen-Containing Nitrone Derivatives from (R)-citronellal” (Medicines, 2017)", "key": {"DPPH radical scavenging": {"assay": "DPPH radical scavenging", "settings": "for DPPH radical scavenging, percentage of inhibition in relation to control: mean ± SD (n = 3); for DPPH radical scavenging activity (in words): 10–500 μM tested", "description": "(§1) The antioxidant properties of the synthesized compounds (5a–d and 10) were evaluated by three different methods in vitro: DPPH (1,1-diphenyl-2-picryl-hydrazyl) and ABTS^+ (2,2′-azino-bis(3-ethylbenzthiazoline-6-sulfonic acid) radical scavenging ability and ferric ion reducing antioxidant power (FRAP). All drugs were dissolved in dimethyl sulfoxide (DMSO) at concentrations of 1–500 µM. These assays were performed according to the literature and details of these experiments are described elsewhere (see the ‘Results and Discussion’ section for the references). […]\n(§2) 2.3. Antioxidant activity assays\n(§3) The antioxidant properties of the synthesized compounds were evaluated by three different methods in vitro: DPPH and ABTS+ radical scavenging activity and ferric ion reducing antioxidant power (FRAP). All drugs were dissolved in dimethyl sulfoxide (DMSO). The experimental results were given as the means ± standard deviation (SD) to show the variations among the groups. The statistical analysis was performed using one‐way analysis of variance (ANOVA) followed by Newman‐Keuls multiple comparison test when appropriate. The differences were considered statistically significant at a probability of less than 5% (p < 0.05). All tests were performed at least three times in duplicate. The IC50 values (the concentration of sample required to scavenge 50% of the free radicals) were calculated from the graph of the scavenging effect percentage versus the […]\n(§4) 2.4. Radical Scavenging Activity\nTo determine if compounds 5a–d and 10 present in vitro antioxidant activity against free radicals, DPPH and ABTS+ scavenging capability were evaluated at different concentrations.\nThe DPPH scavenging activity of compounds 5a–d and 10 (10–500 μM) was determined in accordance with the method of Sharma and Bhat and the decrease in the absorbance at 517 nm […]\n(§5) The ABTS radical scavenging activity was determined according to the method described by Erel. Different concentrations of compounds 5a–d and 10 (10–500 μ M) were mixed with the ABTS+ solution, and the decrease in the absorbance at 734 nm was recorded. […]\n(§6) values, as calculated by the following equation:\nI% = [(Ac−As/Ac) × 100] (1) […]"}, "ABTS radical scavenging": {"assay": "ABTS radical scavenging", "settings": "mean ± SD (n = 3); for IC50: read-out: ABTS radical scavenging IC50 (concentration compound required for 50% scavenging)", "description": "as §1, §2, §3, §4\nTo determine if compounds 5a–d and 10 present in vitro antioxidant activity against free radicals, DPPH and ABTS+ scavenging capability were evaluated at different concentrations. […]\nas §5, §6\nI% = [(Ac−As/Ac) × 100] (1)\n3. Ferric ion reducing antioxidant power (FRAP) […]\nreducing capacity of compounds 5a–d and 10.\n[8] with slight modifications.\nThey were homogenized in a 0.1 M\nThe supernatants were used for determination of the δ‐ALAD activity. […]\nand 500 μL of distilled water. […]\nand the absorbance was read at 555 nm."}, "[1]": {"system": "Listeria monocytogenes ATCC 7644", "assay": "agar disk diffusion test", "format": "cell-based", "settings": "L. monocytogenes, 1.0 × 10^8 CFU.mL^−1; 20 μL compound diluted in DMSO (1:1) per 6 mm disc; streptomycin 10 µg; mean of two repetitions", "excerpt": "(§7) To evaluate the antimicrobial potential of the synthesized compounds, the following reference strains of bacteria, that are economically important in foods, were employed: Gram-positive Listeria monocytogenes ATCC 7644, Staphylococcus aureus ATCC 25923, and Bacillus cereus ATCC 11778; Gram-negative Salmonella Typhimurium ATCC 14028, Escherichia coli O157: H7 NCTC 12900 and the clinically important Pseudomonas aeruginosa ATCC 15442.\n(§8) The antimicrobial activity assay using the disk diffusion test was realized using the methodology that is recommended by the Clinical Laboratory Standards Institute (CLSI). The determination of the minimum inhibitory concentration (MIC) and minimum bactericidal concentration (MBC) was performed using the macro dilution tube method, in accordance with Rota et al., with modifications. Details of these assays are provided in the Supplemental Material. […]\n(§9) 2.1. Antimicrobial activity assay using the disk diffusion test\n(§10) The disk diffusion test followed the methodology recommended by the Clinical Laboratory Standards Institute CLSI [4]. The inoculum was standardized by standard McFarland to the concentration of 10^8 CFU.mL−1 and spread on the surface of a Petri dish containing Mueller‐Hinton (MH) agar. Then, the paper disc (6 mm) was put on a plate impregnated with 20 μL of the testing compound previously diluted in DMSO (1:1) and incubated at 37 °C for 24 hours. Zone of inhibition ≥20 mm were considered as strong inhibition, <20–12 mm as moderate inhibition, and <12 mm no inhibition. A positive control with streptomycin antibiotic (10 μg) and a negative one, with paper discs impregnated with distilled water, were used […]\n(§11) 2.4. Radical Scavenging Activity […]\n(§12) The ABTS radical scavenging activity was determined according to the method described by Erel. Different concentrations of compounds 5a–d and 10 (10–500 μ M) were mixed with the ABTS+ solution, and the decrease in the absorbance at 734 nm was recorded."}, "[2]": {"system": "Staphylococcus aureus ATCC 25923", "assay": "agar disk diffusion test", "format": "cell-based", "settings": "S. aureus, 1.0 × 10^8 CFU.mL^−1; 20 μL compound diluted in DMSO (1:1) per 6 mm disc; streptomycin 10 µg; mean of two repetitions", "excerpt": "as §7, §8, §9, §10, §11, §12"}, "[3]": {"system": "Escherichia coli O157: H7 NCTC 12900", "assay": "agar disk diffusion test", "format": "cell-based", "settings": "E. coli O157:H7, 1.0 × 10^8 CFU.mL^−1; 20 μL compound diluted in DMSO (1:1) per 6 mm disc; streptomycin 10 µg; mean of two repetitions", "excerpt": "as §7, §8, §9, §10, §11, §12"}, "[4]": {"system": "Bacillus cereus ATCC 11778", "assay": "agar disk diffusion test", "format": "cell-based", "settings": "B. cereus, 1.0 × 10^8 CFU.mL^−1; 20 μL compound diluted in DMSO (1:1) per 6 mm disc; streptomycin 10 µg; mean of two repetitions", "excerpt": "as §7, §8, §9, §10, §11, §12"}, "[5]": {"system": "Salmonella Typhimurium ATCC 14028", "assay": "agar disk diffusion test", "format": "cell-based", "settings": "S. Typhimurium, 1.0 × 10^8 CFU.mL^−1; 20 μL compound diluted in DMSO (1:1) per 6 mm disc; streptomycin 10 µg; mean of two repetitions", "excerpt": "as §7, §8, §9, §10, §11, §12"}, "[6]": {"system": "Pseudomonas aeruginosa ATCC 15442", "assay": "agar disk diffusion test", "format": "cell-based", "settings": "P. aeruginosa, 1.0 × 10^8 CFU.mL^−1; 20 μL compound diluted in DMSO (1:1) per 6 mm disc; streptomycin 10 µg; mean of two repetitions", "excerpt": "as §7, §8, §9, §10, §11, §12"}}, "note": "Where “and” joins values, the source holds several entries; their conditions need not be identical. Identical values can stand only once."}
{"smiles": "CC(C)=CCCC(C)C(/C=[N+](\\C)[O-])Sc1ccccc1", "note": "(centres unmarked) [5a, (E)-N,3,7-Trimethyl-2-(phenylthio)oct-6-en-1-imine oxide]", "values": [{"measurement": "DPPH radical scavenging, percentage of inhibition in relation to control", "setting": "DPPH radical scavenging; 100 μM", "value": "2.43 ± 1.08", "unit": "%"}, {"measurement": "DPPH radical scavenging, percentage of inhibition in relation to control", "setting": "DPPH radical scavenging; 500 μM", "value": "20.31 ± 1.26", "unit": "%"}, {"measurement": "DPPH radical scavenging activity (in words)", "setting": "DPPH radical scavenging", "value": "demonstrated DPPH radical scavenging activity"}, {"measurement": "ABTS radical scavenging, percentage of inhibition in relation to control", "setting": "ABTS radical scavenging; 50 μM", "value": "11.74 ± 0.47", "unit": "%"}, {"measurement": "ABTS radical scavenging, percentage of inhibition in relation to control", "setting": "ABTS radical scavenging; 100 μM", "value": "22.84 ± 1.02", "unit": "%"}, {"measurement": "ABTS radical scavenging, percentage of inhibition in relation to control", "setting": "ABTS radical scavenging; 500 μM", "value": "77.61 ± 0.81", "unit": "%"}, {"measurement": "IC50", "setting": "ABTS radical scavenging", "value": "297 ± 1", "unit": "µM"}, {"measurement": "Inhibition Zone", "setting": "[1]", "value": 18, "unit": "mm"}, {"measurement": "Inhibition Zone", "setting": "[2]", "value": 15, "unit": "mm"}, {"measurement": "Inhibition Zone", "setting": "[3]", "value": 11, "unit": "mm"}, {"measurement": "Inhibition Zone", "setting": "[4]", "value": 21.5, "unit": "mm"}, {"measurement": "Inhibition Zone", "setting": "[5]", "value": 8.5, "unit": "mm"}, {"measurement": "Inhibition Zone", "setting": "[6]", "value": 8.5, "unit": "mm"}]}
{"smiles": "CC(C)=CCCC(C)(C/C=[N+](\\C)[O-])Sc1ccccc1", "note": "(centres unmarked) [5c, (E)-N,3,7-trimethyl-3-(phenylthio)oct-6-en-1-imine oxide]", "values": [{"measurement": "DPPH radical scavenging, percentage of inhibition in relation to control", "setting": "DPPH radical scavenging; 100 μM", "value": "2.43 ± 0.61", "unit": "%"}, {"measurement": "DPPH radical scavenging, percentage of inhibition in relation to control", "setting": "DPPH radical scavenging; 500 μM", "value": "29.34 ± 1.00", "unit": "%"}, {"measurement": "DPPH radical scavenging activity (in words)", "setting": "DPPH radical scavenging", "value": "demonstrated DPPH radical scavenging activity"}, {"measurement": "ABTS radical scavenging, percentage of inhibition in relation to control", "setting": "ABTS radical scavenging; 50 μM", "value": "4.18 ± 1.23", "unit": "%"}, {"measurement": "ABTS radical scavenging, percentage of inhibition in relation to control", "setting": "ABTS radical scavenging; 100 μM", "value": "11.60 ± 1.50", "unit": "%"}, {"measurement": "ABTS radical scavenging, percentage of inhibition in relation to control", "setting": "ABTS radical scavenging; 500 μM", "value": "59.51 ± 4.16", "unit": "%"}, {"measurement": "IC50", "setting": "ABTS radical scavenging", "value": "419 ± 35.8", "unit": "µM"}, {"measurement": "Inhibition Zone", "setting": "[1]", "value": "26.0 mm and 26 mm"}, {"measurement": "Inhibition Zone", "setting": "[2]", "value": 24, "unit": "mm"}, {"measurement": "Inhibition Zone", "setting": "[3]", "value": 21.5, "unit": "mm"}, {"measurement": "Inhibition Zone", "setting": "[4]", "value": 24.5, "unit": "mm"}, {"measurement": "Inhibition Zone", "setting": "[6]", "value": 24, "unit": "mm"}]}
{"smiles": "CC(C)=CCCC(C)C/C=[N+](\\C)[O-]", "note": "(centres unmarked) [5d, (E)-N,3,7-trimethyloct-6-en-1-imine oxide]", "values": [{"measurement": "DPPH radical scavenging activity (in words)", "setting": "DPPH radical scavenging", "value": "did not present effect"}, {"measurement": "ABTS radical scavenging, percentage of inhibition in relation to control", "setting": "ABTS radical scavenging; 50 μM", "value": "0.30 ± 0.33", "unit": "%"}, {"measurement": "ABTS radical scavenging, percentage of inhibition in relation to control", "setting": "ABTS radical scavenging; 100 μM", "value": "3.10 ± 0.48", "unit": "%"}, {"measurement": "ABTS radical scavenging, percentage of inhibition in relation to control", "setting": "ABTS radical scavenging; 500 μM", "value": "17.05 ± 0.47", "unit": "%"}, {"measurement": "Inhibition Zone", "setting": "[1]", "value": "31.0 mm and 31 mm"}, {"measurement": "Inhibition Zone", "setting": "[2]", "value": 24.5, "unit": "mm"}, {"measurement": "Inhibition Zone", "setting": "[3]", "value": 22.5, "unit": "mm"}, {"measurement": "Inhibition Zone", "setting": "[4]", "value": 29, "unit": "mm"}, {"measurement": "Inhibition Zone", "setting": "[5]", "value": 23, "unit": "mm"}, {"measurement": "Inhibition Zone", "setting": "[6]", "value": 23, "unit": "mm"}]}
{"smiles": "CC(C)=CCC[C@@H](C)C(/C=N/O)[Se]c1ccccc1", "note": "(stereo partly drawn) [compound 10, (3R,E)-3,7-dimethyl-2-(phenylselanyl)oct-6-enal oxime]", "values": [{"measurement": "DPPH radical scavenging activity (in words)", "setting": "DPPH radical scavenging", "value": "did not present effect"}, {"measurement": "ABTS radical scavenging, percentage of inhibition in relation to control", "setting": "ABTS radical scavenging; 5 μM", "value": "2.39 ± 0.57", "unit": "%"}, {"measurement": "ABTS radical scavenging, percentage of inhibition in relation to control", "setting": "ABTS radical scavenging; 10 μM", "value": "27.81 ± 2.12", "unit": "%"}, {"measurement": "ABTS radical scavenging, percentage of inhibition in relation to control", "setting": "ABTS radical scavenging; 50 μM", "value": "87.59 ± 4.81", "unit": "%"}, {"measurement": "ABTS radical scavenging, percentage of inhibition in relation to control", "setting": "ABTS radical scavenging; 100 μM", "value": "94.03 ± 1.05", "unit": "%"}, {"measurement": "IC50", "setting": "ABTS radical scavenging", "value": "25 ± 2", "unit": "µM"}, {"measurement": "Inhibition Zone", "setting": "[1]", "value": 21, "unit": "mm"}, {"measurement": "Inhibition Zone", "setting": "[2]", "value": 22, "unit": "mm"}, {"measurement": "Inhibition Zone", "setting": "[3]", "value": 9, "unit": "mm"}, {"measurement": "Inhibition Zone", "setting": "[4]", "value": 19, "unit": "mm"}, {"measurement": "Inhibition Zone", "setting": "[5]", "value": 10.5, "unit": "mm"}, {"measurement": "Inhibition Zone", "setting": "[6]", "value": 9, "unit": "mm"}]}
